Test results published in patent US8455491B2, “6-cycloamino-3-(pyridazin-4-yl)imidazo[1,2-b]pyridazine and derivatives and pharmaceutical compositions comprising the same” (Sanofi, priority 2007, dated 2013).

Question: Which melting point does the source give for `FCC1CN(c2ccc3nc(-c4ccc(F)cc4)c(-c4ccnnc4)n3n2)CCN1` (racemic) [compound 40, (+/−)-6-(3-fluoromethylpiperazin-1-yl)-2-(4-fluorophenyl)-3-pyridazin-4-ylimidazo[1,2-b]pyridazine] here?
Answer: The melting point was 184 to 189 °C.

Question: Which melting point does the source give for `CC1(C)CN(c2ccc3nc(-c4ccc(F)cc4)c(-c4ccnnc4)n3n2)CCN1` [Compound No. 3, 6-(3,3-dimethylpiperazin-1-yl)-2-(4-fluorophenyl)-3-pyridazin-4-yl-imidazo[1,2-b]pyridazine] here?
Answer: The melting point was 226 to 228 °C.

Question: For `C[C@@H]1CN(c2ccc3nc(-c4ccc(F)cc4)c(-c4ccnnc4)n3n2)C[C@H](C)N1` [compound 4, 6-(cis-3,5-dimethylpiperazin-1-yl)-2-(4-fluorophenyl)-3-pyridazin-4-yl-imidazo[1,2-b]pyridazine], which melting point is on record?
Answer: Its melting point is 197 to 199 °C.

Question: With `FCCN1CCN(c2ccc3nc(-c4ccccc4)c(-c4ccnnc4)n3n2)CC1` [compound 7, 6-[4-(2-fluoroethyl)piperazin-1-yl]-2-phenyl-3-pyridazin-4-yl-imidazo[1,2-b]pyridazine] as the molecule, how does the melting point read?
Answer: Its melting point is 156 to 158 °C.

Question: With `CC(C)N1CCN(c2ccc3nc(-c4cccc(F)c4)c(-c4ccnnc4)n3n2)CC1` [compound 10, 2-(3-fluorophenyl)-6-(4-isopropylpiperazin-1-yl)-3-pyridazin-4-yl-imidazo[1,2-b]pyridazine] as the molecule, how does the melting point read?
Answer: The melting point was 197 to 199 °C.

Question: For `Cc1cc(C)cc(-c2nc3ccc(N4CCN(C(C)C)CC4)nn3c2-c2ccnnc2)c1` [compound 13, 2-(3,5-dimethylphenyl)-6-(4-isopropylpiperazin-1-yl)-3-pyridazin-4-yl-imidazo[1,2-b]pyridazine], which melting point is on record?
Answer: Its melting point is 183 to 184 °C.

Question: For `CC(C)(O)CN1CCN(c2ccc3nc(-c4ccc(F)cc4)c(-c4ccnnc4)n3n2)CC1` [compound 20, 1-{4-[2-(4-fluorophenyl)-3-pyridazin-4-yl-imidazo[1,2-b]pyridazin-6-yl]piperazin-1-yl}-2-methylpropan-2-ol], which melting point is on record?
Answer: The melting point was 200 to 202 °C.

Question: For `Fc1ccc(-c2nc3ccc(N4C[C@@H]5C[C@H]4CN5)nn3c2-c2ccnnc2)cc1` [compound 23, 6-((1S,4S)-2,5-diazabicyclo[2.2.1]hept-2-yl)-2-(4-fluorophenyl)-3-pyridazin-4-yl-imidazo[1,2-b]pyridazine], which melting point is on record?
Answer: The melting point was 205 to 207 °C.

Question: With `OCCN1C[C@@H]2C[C@H]1CN2c1ccc2nc(-c3ccc(F)cc3)c(-c3ccnnc3)n2n1` [compound 24, 2-{5-[2-(4-fluorophenyl)-3-pyridazin-4-yl-imidazo[1,2-b]pyridazin-6-yl]-(1S,4S)-2,5-diazabicyclo[2.2.1]hept-2-yl}-ethanol] as the molecule, how does the melting point read?
Answer: Its melting point is 175 to 177 °C.

Question: With `CC(C)N1C[C@@H]2C[C@H]1CN2c1ccc2nc(-c3ccc(F)cc3)c(-c3ccnnc3)n2n1` [compound 25, 2-(4-fluorophenyl)-6-(5-isopropyl-(1S,4S)-2,5-diazabicyclo[2.2.1]hept-2-yl)-3-pyridazin-4-yl-imidazo[1,2-b]pyridazine] as the molecule, how does the melting point read?
Answer: Its melting point is 201 to 203 °C.

Question: For `Fc1ccc(-c2nc3ccc(N4CCC5(CCCNC5)CC4)nn3c2-c2ccnnc2)cc1` [compound 31, 9-[2-(4-fluorophenyl)-3-pyridazin-4-yl-imidazo[1,2-b]pyridazin-6-yl]-2,9-diaza-spiro[5.5]undecane], which melting point is on record?
Answer: Its melting point is 203 to 205 °C.

Question: Which melting point does the source give for `Fc1ccc(-c2nc3ccc(N4CCC5(CC4)CNCCO5)nn3c2-c2ccnnc2)cc1` [compound 32, 9-[2-(4-fluorophenyl)-3-pyridazin-4-yl-imidazo[1,2-b]pyridazin-6-yl]-1-oxa-4,9-diaza-spiro[5.5]undecane] here?
Answer: The melting point was 212 to 214 °C.

Question: For `Fc1ccc(-c2nc3ccc(N4CCC(N5CCCC5)C4)nn3c2-c2ccnnc2)cc1` (stereo not drawn) [compound 33, 6-[1,3]bipyrrolidinyl-1′-yl-2-(4-fluorophenyl)-3-pyridazin-4-yl-imidazo[1,2-b]pyridazine], which melting point is on record?
Answer: Its melting point is 182 to 184 °C.

Question: For `Fc1ccc(-c2nc3ccc(N4CCC(N5CCCC5)CC4)nn3c2-c2ccnnc2)cc1` [compound 34, 2-(4-fluorophenyl)-3-pyridazin-4-yl-6-(4-pyrrolidin-1-yl-piperidin-1-yl)-imidazo[1,2-b]pyridazine], which melting point is on record?
Answer: Its melting point is 196 to 198 °C.

Question: With `CN1CC2CN(c3ccc4nc(-c5ccccc5)c(-c5ccnnc5)n4n3)CC2C1` (stereo not drawn) [compound 41, 6-(5-methylhexahydropyrrolo[3,4-c]pyrrol-2(1H)-yl)-2-phenyl-3-pyridazin-4-ylimidazo[1,2-b]pyridazine] as the molecule, how does the melting point read?
Answer: Its melting point is 154 to 157 °C.

Question: With `CN1CC2CN(c3ccc4nc(-c5cccc(F)c5)c(-c5ccnnc5)n4n3)CC2C1` (stereo not drawn) [compound 42, 2-(3-fluorophenyl)-6-(5-methylhexahydropyrrolo[3,4-c]pyrrol-2(1H)-yl)-3-pyridazin-4-ylimidazo[1,2-b]pyridazine] as the molecule, how does the melting point read?
Answer: The melting point was 168 to 170 °C.

Question: Which melting point does the source give for `Cc1cc(N2CC3CN(C)CC3C2)nn2c(-c3ccnnc3)c(-c3ccc(F)cc3)nc12` (stereo not drawn) [compound 44, 2-(4-fluorophenyl)-8-methyl-6-(5-methylhexahydropyrrolo[3,4-c]pyrrol-2(1H)-yl)-3-pyridazin-4-ylimidazo[1,2-b]pyridazine] here?
Answer: Its melting point is 255 to 257 °C.

Question: With `CN1CC2CN(c3ccc4nc(-c5ccc(F)c(F)c5)c(-c5ccnnc5)n4n3)CC2C1` (stereo not drawn) [compound 45, 2-(3,4-difluorophenyl)-6-(5-methylhexahydropyrrolo[3,4-c]pyrrol-2(1H)-yl)-3-pyridazin-4-ylimidazo[1,2-b]pyridazine] as the molecule, how does the melting point read?
Answer: Its melting point is 186 to 188 °C.
